Source: article PMC6838674, “Apelin-36-[L28A] and Apelin-36-[L28C(30kDa-PEG)] peptides that improve diet induced obesity are G protein biased ligands at the apelin receptor” (Peptides, 2019)
Changes are numbered by the printed parent chain. Names may count otherwise. Blank lines part the entries; values can stand above or below the molecule they belong to. Ends that are not written are not given here.

Tests used:
[1] = system: apelin receptor; parameters: method as in earlier work; conditions: ref 20 (Galon-Tilleman et al.), cited from earlier work
[2] = molecular target: T1, apelin receptor (Homo sapiens, UniProt P35414); assay: Inhibition of forskolin-induced cAMP accumulation assay (DiscoverX); format: cell-based; parameters: host or cells: CHO-K1; conditions: for cAMP Assay Fold change: fold change in potency relative to apelin-36; for cAMP Assay RE (relative effectiveness) / cAMP Assay ΔlogR: operational model, compared to apelin-36
T1 sequence (P35414 1-380): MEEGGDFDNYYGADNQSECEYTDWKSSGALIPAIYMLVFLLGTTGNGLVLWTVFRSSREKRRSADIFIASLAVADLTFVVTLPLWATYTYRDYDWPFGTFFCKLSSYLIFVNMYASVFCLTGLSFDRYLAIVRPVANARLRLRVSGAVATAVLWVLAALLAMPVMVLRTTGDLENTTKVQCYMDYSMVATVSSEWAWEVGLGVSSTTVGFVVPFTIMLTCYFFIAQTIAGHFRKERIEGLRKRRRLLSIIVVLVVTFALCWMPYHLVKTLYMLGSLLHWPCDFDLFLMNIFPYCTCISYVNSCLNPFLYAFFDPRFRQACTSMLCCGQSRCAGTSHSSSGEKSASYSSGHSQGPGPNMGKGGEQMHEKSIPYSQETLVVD
Experimental: Cell-based cAMP assay were performed as previously described. Briefly, Chinese Hamster Ovary cells (CHO-K1) cells artificially expressing the human apelin receptor were seeded in Cell Plating media into 96-well plates and incubated for 24 h at 37 °C in 5% CO2. […] Cells were subsequently incubated with cAMP Detection Reagent comprising cAMP Lysis Buffer, Substrate Reagent 1, Substrate Reagent 2 and cAMP Solution D for 1 h at room temperature followed by 3 h incubation with cAMP Reagent A at room temperature and chemiluminescence reading (LumiLITE™ Microplate Reader, DiscoverX). Responses were fitted to a 4-parameter logistic equation in GraphPad Prism 7 (La Jolla, CA, USA) and values of potency, pD2 (-log10 EC50, where EC50 is the concentration producing half maximal response) determined. Data were expressed as percentage inhibition of forskolin-stimulated cAMP production.
(§1) Data were expressed as mean ± SEM. Experiments were performed in triplicates or duplicates and n-values were expressed as number of independent experiments. Potencies of analogues in cell-based assays were compared to native apelin-36 using a one-way ANOVA with Dunnett’s posthoc test in GraphPad Prism 7. A P value < 0.05 was considered statistically significant. Binding affinities in both species were compared using Student’s t-test in Graphpad Prism as described above. Bias calculations were performed as previously described using the operational model for bias, to obtain values for relative effectiveness of the apelin-36 synthetic analogues compared to apelin-36 within each cell-based assay. Bias factors were calculated to compare the relative activities of the analogues between the different pathways – β-arrestin (G protein independent) and cAMP (G protein dependent).

[3] = molecular target: T1, apelin receptor; assay: β-Arrestin recruitment assay (DiscoverX AGTRL1); format: cell-based; parameters: host or cells: CHO-K1; conditions: for β-Arrestin Assay Fold change: fold change in potency relative to apelin-36; for β-Arrestin Assay RE (relative effectiveness) / β-Arrestin Assay ΔlogR: operational model, compared to apelin-36; for β-Arrestin Assay ΔlogR / β-Arrestin Assay pD2±SEM / EC50: n = 3-4 independent experiments; for β-Arrestin Assay pD2±SEM / EC50: CHO-K1 cells expressing human apelin receptor, 90 min, 37 °C, mean ± SEM, SEM; for EC50: read-out: β-Arrestin Assay pD2±SEM (converted)
Experimental: Experiments were performed using a β-arrestin GPCR Assay (AGTRL1) (DiscoverX, Lot No.: 16L0902) according to methods previously described. CHO-K1 cells artificially expressing the human apelin receptor were seeded in Cell Plating media into 96-well plates and incubated for 48 h at 37 °C in 5% CO2. […] Negative controls were defined with equal volumes of drug solvent (water). The resulting chemiluminescent signal was measured using a LumiLITE™ Microplate Reader (DiscoverX, Fremont, CA). Responses, measured in relative light units, were fitted with a 4-parameter logistic equation in GraphPad Prism 7 (La Jolla, CA, USA) and values of pD2 and maximum response (EMax) were calculated for each compound.
as §1

[4] = molecular target: T1, apelin receptor; assay: Bias analysis, cAMP vs β-arrestin (operational model for bias); format: cell-based; parameters: host or cells: CHO-K1; conditions: for cAMP vs β-arrestin Assay Bias factor: G protein (cAMP) over β-arrestin; for cAMP vs β-arrestin Assay Bias factor / cAMP vs β-arrestin Assay ΔΔlogR ± SEM: reference ligand apelin-36; for cAMP vs β-arrestin Assay ΔΔlogR ± SEM: difference between ΔlogR in cAMP and β-arrestin pathways
Experimental: as §1, with “A P value < 0.05 was considered statistically significant.” left out, “Bias calculations were performed as previously described using the operational model for bias, to obtain values for relative effectiveness of the apelin-36 synthetic analogues compared to apelin-36 within each cell-based assay.” left out

[5] = molecular target: T2, apelin receptor (Rattus norvegicus, UniProt Q9JHG3); assay: Radioligand competition binding, rat heart homogenate; conditions: [125I]apelin-13 0.1 nM, 90 min, competitor 50 pM-100 μM, mean ± SEM, n = 3 replicates per concentration
T2 construct: experiments using native rat and human receptor; from tissue; host or cells: pooled hearts of Sprague Dawley rats
T2 sequence (Q9JHG3 1-377): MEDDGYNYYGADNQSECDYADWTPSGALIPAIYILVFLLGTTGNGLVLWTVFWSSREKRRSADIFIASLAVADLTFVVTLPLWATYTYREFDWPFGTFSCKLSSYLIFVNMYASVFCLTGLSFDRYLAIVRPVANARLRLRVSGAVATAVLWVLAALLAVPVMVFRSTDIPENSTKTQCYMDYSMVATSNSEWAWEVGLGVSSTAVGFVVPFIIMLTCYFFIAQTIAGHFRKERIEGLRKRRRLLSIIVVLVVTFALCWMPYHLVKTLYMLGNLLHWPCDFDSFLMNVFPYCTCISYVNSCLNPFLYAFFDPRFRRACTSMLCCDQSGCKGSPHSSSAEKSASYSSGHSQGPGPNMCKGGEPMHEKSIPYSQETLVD
Excerpt: Samples of human left ventricle were obtained with informed consent and ethical approval (05/Q104/142) via the Papworth Hospital Research Tissue Bank (08/H0304/56) from the explanted hearts of five dilated cardiomyopathy patients (4 males and 1 female, aged 38–55 years) undergoing transplantation. Studies conformed to the principles outlined in the declaration of Helsinki. All animal research was regulated under the Animals (Scientific Procedures) Act 1986 Amendment Regulations 2012 following ethical review by the University of Cambridge Animal Welfare and Ethical Review Body (AWERB). Adult female and male Sprague Dawley rats (n = 14; aged 7–10 weeks) were sacrificed using overdose of CO2 and cervical dislocation before heart tissue was removed and frozen on dry ice. […] Final pellets were then resuspended in 10 ml HEPES buffer (50 mM HEPES, pH 7.4) and protein concentration determined. […]
(§2) Competition binding experiments were performed using pooled human homogenised left ventricle (HLV, 1.5 mg/ml) and pooled rat heart homogenates (1.5 mg/ml) as previously described. […] The samples were then re-centrifuged to collect protein pellets before bound radioactivity in these pellets were counted using Packard Cobra II Auto Gamma Counter (Packard). Data were analysed with Graphpad Prism 7 (Graphpad Software, Inc. La Jolla, CA), using the One-site Fit Ki equation.

[6] = molecular target: T1, apelin receptor; assay: Radioligand competition binding, human left ventricle homogenate; parameters: experiments using native rat and human receptor; from tissue; host or cells: human left ventricle from explanted hearts of dilated cardiomyopathy patients; conditions: [125I]apelin-13 0.1 nM, 90 min, competitor 50 pM-100 μM, mean ± SEM, n = 3 replicates per concentration; for Ki: human heart homogenate 1.5 mg/ml
Excerpt: Samples of human left ventricle were obtained with informed consent and ethical approval (05/Q104/142) via the Papworth Hospital Research Tissue Bank (08/H0304/56) from the explanted hearts of five dilated cardiomyopathy patients (4 males and 1 female, aged 38–55 years) undergoing transplantation. Studies conformed to the principles outlined in the declaration of Helsinki. All animal research was regulated under the Animals (Scientific Procedures) Act 1986 Amendment Regulations 2012 following ethical review by the University of Cambridge Animal Welfare and Ethical Review Body (AWERB). Adult female and male Sprague Dawley rats (n = 14; aged 7–10 weeks) were sacrificed using overdose of CO2 and cervical dislocation before heart tissue was removed and frozen on dry ice. Hearts were pooled and 2 g tissue transferred into a centrifuge tube (50 ml) containing 20 ml homogenisation buffer (50 mM Tris, 5 mM MgCl2, 5 mM EDTA, 1 mM EGTA at pH 7.4 with protease inhibitor cocktail) on ice. The tissue was homogenised on ice using a polytron probe with 2–3 × 20 s bursts and centrifuged at 3000 rpm for 2 min at 4 °C. The supernatant was further centrifuged at 18,500 rpm for 30 min at 4 °C. The resulting pellet was resuspended in 5 ml homogenisation buffer containing protease inhibitor cocktail and centrifuged at 18,500 rpm for 30 min at 4 °C twice. Final pellets were then resuspended in 10 ml HEPES buffer (50 mM HEPES, pH 7.4) and protein concentration determined. Samples were stored at −70 °C until required.
as §2, with “described. […] (50 pM-100 μM).” for “described.”

[7] = molecular target: T3, apelin receptor (Rattus norvegicus), Q9JHG3; assay: radioligand competition binding, heart homogenate; conditions: modification not given
T3 chain: T2 sequence (Q9JHG3 1-377) with L28A

[8] = n = 3-4 independent experiments
[9] = CHO-K1 cells expressing human apelin receptor, 15 μM forskolin, 30 min, 37 °C, n = 3-4 independent experiments, read-out: cAMP Assay EC50
[10] = CHO-K1 cells expressing human apelin receptor, 15 μM forskolin, 30 min, 37 °C, mean ± SEM, n = 3-4 independent experiments, SEM, read-out: cAMP Assay pD2±SEM (converted)

Molecule: Apelin-13 [reference compound]
agonist character at apelin receptor (comment) ([1]; comment in Table 1): QRPRLSHKGPMPF (full agonist)

Molecule: Apelin-36-[L28C(30kDa-PEG)]: apelin-36 with leucine-28 to cysteine substitution, cysteine-28 PEGylated (30kDa)
fold less potent / less active at apelin receptor compared to apelin-36 ([1]; β-arrestin activation): 10,000 fold
cAMP Assay Fold change [2]: 104 fold
cAMP Assay RE (relative effectiveness) [2]: 0.01
cAMP Assay ΔlogR [2, 8]: −1.95 ± 0.31
β-Arrestin Assay Fold change ([3]; listed as Apelin-36-[L28C (30kDa-PEG)]): 1324 fold
β-Arrestin Assay Fold change ([3]; listed as apelin-36-[L28C(30kDa-PEG)]): 1400 fold
β-Arrestin Assay RE (relative effectiveness) [3]: 0.0002
β-Arrestin Assay ΔlogR [3]: −3.71 ± 0.12
fold more potent in the cAMP assay compared to the β-arrestin assay ([4]; CHO-K1 cells expressing human apelin receptor): ~10 fold
cAMP vs β-arrestin Assay Bias factor [4]: 58
cAMP vs β-arrestin Assay ΔΔlogR ± SEM [4]: 1.76 ± 0.33

Molecule: Apelin-36-[L28C(30kDa-PEG)]: apelin-36 with leucine-28 to cysteine substitution, cysteine-28 PEGylated (30kDa) (LVQPRGSRNGPGPWQGGRRKFRRQRPRCSHKGPMPF)
pKi [5]: 8.06 ± 0.37
EC50 [2, 9]: 95.3 nM
β-Arrestin Assay pD2±SEM [3]: 6.05 ± 0.06
pKi ([6]; human heart homogenate […]): 8.00 ± 0.05

Molecule: [40kDa-PEG]-Apelin-36: N-terminal PEGylated (40kDa) apelin-36
cAMP Assay Fold change [2]: 2 fold
cAMP Assay RE (relative effectiveness) [2]: 1.20
cAMP Assay ΔlogR [2, 8]: 0.08 ± 0.40
β-Arrestin Assay Fold change [3]: 3 fold
β-Arrestin Assay RE (relative effectiveness) [3]: 0.26
β-Arrestin Assay ΔlogR [3]: −0.59 ± 0.16
cAMP vs β-arrestin Assay Bias factor [4]: 5
cAMP vs β-arrestin Assay ΔΔlogR ± SEM [4]: 0.67 ± 0.43

Molecule: [40kDa-PEG]-Apelin-36: N-terminal PEGylated (40kDa) apelin-36 (LVQPRGSRNGPGPWQGGRRKFRRQRPRLSHKGPMPF)
cAMP Assay pD2±SEM ([2]; CHO-K1 cells expressing human apelin receptor, 15 μM forskolin, 30 min, 37 °C, mean ± SEM, n = 3-4 independent experiments, SEM): 8.69 ± 0.22
β-Arrestin Assay pD2±SEM [3]: 8.71 ± 0.15

Further lines, with some results ahead:

EC50 [2, 10]: 7.59 nM
EC50 [3]: 151 nM
Molecule: LVQPRGSRNGPGAWQGGRRKFRRQRPRASHKGPMPF [Apelin-36-[A13 A28]]

EC50 [2, 9]: 13.1 nM
EC50 [3]: 37.2 nM
Molecule: LVQPRGSRNGPGPWQGGRRKFRRQRPRASHKGPMPF [Apelin-36-[L28A]]
Ki [6]: 3.02 nM

EC50 [2, 10]: 1.26 nM
EC50 [3]: 8.13 nM
Molecule: LVQPRGSRNGPGPWQGGRRKFRRQRPRLSHKGPMPA [Apelin-36-[F36A]]

Ki [5]: 0.0589 nM
EC50 [2, 10]: 0.912 nM
EC50 [3]: 0.676 nM
Molecule: LVQPRGSRNGPGPWQGGRRKFRRQRPRLSHKGPMPF [Apelin-36]
Ki [6]: 0.0525 nM

Ki [7]: 0.309 nM
Molecule: LVQPRGSRNGPGPWQGGRRKFRRQRPRASHKGPMPF (not fully specified) [apelin-36-[L28A]]
